Source: EP0205308B1, “Scytophycins” (Moore, Richard Elliott, priority 1985, dated 1986)
Marks after values point to notes of the source that are not given here. Starred links: 1 amine or outer side, 2 acyl side, 3 side chain; linkers in the order of their positions; H or OH if unused. Non-standard residues stand in square brackets, D forms with d. Residues, ends and D or L forms follow the SMILES beside them. X1 = CCC(N[*:1])C(C)C(=O)O[C@H](C(=O)[*:2])[C@@H](C)CC; X2 = C[C@H](N[*:1])C(=O)C(C)(C)C(=O)[*:2]; NMeY = CN[C@@H](Cc1ccc(O)cc1)C(=O)O; NMeI = CC[C@H](C)[C@H](NC)C(=O)O; NMeV = CN[C@H](C(=O)O)C(C)C

Key:
[1] = system: Pythium ultimum X751; test: In vitro agar-diffusion test; format: cell-based; conditions: for Zone of Inhibition Size: Table 6, level 1 mg/mL
Description: (§1) The activity of scytophycin compounds against pathogenic fungi in standard in vitro agar-diffusion tests, using ¼"(6mm) discs holding ~30 µL of test solution, is illustrated in Tables 6-12.

[2] = system: Sclerotina homoeocarpa X768; test: In vitro agar-diffusion test; format: cell-based; design: key: - = not active
Description: as §1

[3] = system: Rhizoctonia solani X767; test: In vitro agar-diffusion test; format: cell-based; design: key: - = not active
Description: as §1

[4] = system: KB human epidermoid carcinoma; test: Cytotoxicity, minimum toxic dose (method of Furusawa and Cutting); format: cell-based; conditions: KB human epidermoid carcinoma cell line
Description: (§2) The scytophycin compounds are potent cytotoxins. For example, the minimum toxic doses of scytophycins A and B against KB human epidermoid carcinoma and NIH/3T3 mouse fibroblast cell lines were determined to be 1 ng/mL and 0.65 ng/mL, respectively, using methods described by E. Furusawa and W. Cutting in Ann. New York Acad. Sci. 173, 669-679 (1970).

[5] = system: NIH/3T3 mouse fibroblast; test: as above; format: cell-based; conditions: NIH/3T3 mouse fibroblast cell line
Description: as §2

[6] = system: Saccharomyces pastorianus X52; test: In vitro agar-diffusion test; format: cell-based; design: key: T = trace
Description: as §1

[7] = system: P388 Lymphocytic Leukemia; test: Survival of mice with intraperitoneally implanted tumor; format: in vivo, BDF1 Mice; conditions: for activity against intraperitoneally implanted tumor: P388 lymphocytic leukemia, result in words
Description: (§3) Female hybrid BDF1 (DBA/2 x C57BL/6) mice were used for the evaluation of the scytophycins against the three tumors. The mice were first inoculated intraperitoneally with 10⁶ cells of P388 ascites leukemia (P388), 2 to 6 x 10⁵ cells of Lewis lung carcinoma (LLC) homogenate, or 0.3 mL of 20% homogenate of B16 tumor (B16) masses. Drug treatment was started the next day (day 1) and continued daily for 6-9 days.

[8] = system: B16 Melanoma; test: as above; format: in vivo, BDF1 Mice; conditions: for activity against intraperitoneally implanted tumor: B16 melanoma, result in words
Description: as §3

[9] = system: Lewis Lung Carcinoma; test: as above; format: in vivo, BDF1 Mice; conditions: for activity against intraperitoneally implanted tumor: Lewis lung carcinoma, result in words; for % T/C / Mean Survival Time, Days Treated: LLC, 9 days of treatment
Description: as §3

[10] = system: Neurospora crassa X846; test: In vitro agar-diffusion test; format: cell-based
Description: as §1

[11] = system: Candida albicans X657; test: In vitro agar-diffusion test; format: cell-based; conditions: for inhibition of fungal pathogen: Candida albicans, general statement in words
Description: as §1

[12] = format: in vivo; conditions: mice, administered IP
Description: At sublethal doses, the scytophycin compounds are antineoplastic agents. The minimum lethal dose of scytophycin B in mice, when administered IP, is about 650 µg/kg.

[13] = P388, 1 µg/Mouse, 8 days of treatment
[14] = P388, 0.5 µg/Mouse, 8 days of treatment
[15] = P388, 0.65 µg/Mouse, 8 days of treatment
[16] = P388, 2 µg/Mouse, 8 days of treatment
[17] = P388, 3.25 µg/Mouse, 6 days of treatment
[18] = P388, 4 µg/Mouse, 8 days of treatment
[19] = B16, 2 µg/Mouse, 8 days of treatment
[20] = B16, 4 µg/Mouse, 8 days of treatment
[21] = B16, 8 µg/Mouse, 8 days of treatment

CCC1NC(=O)[C@H](C)NC(=O)C(C)(C)C(=O)[C@H](C)NC(=O)[C@H](Cc2ccc(OC)cc2)N(C)C(=O)[C@H](C(C)C)N(C)C(=O)CNC(=O)[C@H]([C@@H](C)CC)N(C)C(=O)CNC(=O)[C@H]([C@@H](C)CC)OC(=O)C1C (some centres unmarked) [Majusculamide C, reference compound] (cyclo(A[X1]G[NMeI]G[NMeV][NMeY](Me)[X2]))
Size of Zone of Inhibition (mm) ([1]; Table 10, 0.01 mg/mL): 10^a mm
Size of Zone of Inhibition (mm) ([1]; Table 10, 0.1 mg/mL): 18 mm
Size of Zone of Inhibition (mm) ([1]; Table 10, 1.0 mg/mL): >30 mm
Size of Zone of Inhibition (mm) ([2]; Table 10, 0.01 mg/mL): -
Size of Zone of Inhibition (mm) ([2]; Table 10, 0.1 mg/mL): -
Size of Zone of Inhibition (mm) ([2]; Table 10, 1.0 mg/mL): 17 mm
Size of Zone of Inhibition (mm) ([3]; Table 10, 0.01 mg/mL): -
Size of Zone of Inhibition (mm) ([3]; Table 10, 0.1 mg/mL): -
Size of Zone of Inhibition (mm) ([3]; Table 10, 1.0 mg/mL): 20^a mm

Scytophycin A
minimum toxic dose [4]: 1 ng/mL
minimum toxic dose [5]: 1 ng/mL
Size of Zone of Inhibition (mm) ([6]; Table 7, 0.01 mg/mL): T^a
Size of Zone of Inhibition (mm) ([6]; Table 7, 0.1 mg/mL): 17 mm
Size of Zone of Inhibition (mm) ([6]; Table 7, 1 mg/mL): 24 mm
% T/C [7, 13]: 125%
Mean Survival Time, Days Treated [7, 13]: 10.0 days
activity against intraperitoneally implanted tumor [7]: moderate activity
activity against intraperitoneally implanted tumor [8]: did not exhibit activity
activity against intraperitoneally implanted tumor [9]: moderate activity
Size of Zone of Inhibition (mm) ([10]; Table 7, 0.01 mg/mL): 18 mm
Size of Zone of Inhibition (mm) ([10]; Table 7, 0.1 mg/mL): 25 mm
Size of Zone of Inhibition (mm) ([10]; Table 7, 1 mg/mL): 30 mm
inhibition of fungal pathogen [11]: inhibit
Size of Zone of Inhibition (mm) ([11]; Table 7, 0.01 mg/mL): 12 mm
Size of Zone of Inhibition (mm) ([11]; Table 7, 0.1 mg/mL): 19 mm
Size of Zone of Inhibition (mm) ([11]; Table 7, 1 mg/mL): 23 mm
Zone of Inhibition Size [1]: 37 mm
Size of Zone of Inhibition (mm) ([1]; Table 10, 0.01 mg/mL): 20 mm
Size of Zone of Inhibition (mm) ([1]; Table 10, 0.1 mg/mL): >30 mm
Size of Zone of Inhibition (mm) ([1]; Table 10, 1.0 mg/mL): >30 mm
Size of Zone of Inhibition (mm) ([2]; Table 10, 0.01 mg/mL): 20 mm
Size of Zone of Inhibition (mm) ([2]; Table 10, 0.1 mg/mL): 30 mm
Size of Zone of Inhibition (mm) ([2]; Table 10, 1.0 mg/mL): >30 mm
Size of Zone of Inhibition (mm) ([3]; Table 10, 0.01 mg/mL): 13 mm
Size of Zone of Inhibition (mm) ([3]; Table 10, 0.1 mg/mL): 23 mm
Size of Zone of Inhibition (mm) ([3]; Table 10, 1.0 mg/mL): 30 mm

Scytophycin B
minimum lethal dose [12]: about 650 µg/kg
minimum toxic dose [4]: 0.65 ng/mL
minimum toxic dose [5]: 0.65 ng/mL
Size of Zone of Inhibition (mm) ([6]; Table 7, 0.01 mg/mL): 20 mm
Size of Zone of Inhibition (mm) ([6]; Table 7, 0.1 mg/mL): 20 mm
Size of Zone of Inhibition (mm) ([6]; Table 7, 1 mg/mL): 27 mm
Size of Zone of Inhibition (mm) ([6]; Table 8, 0.33 mg/mL): 24 mm
Size of Zone of Inhibition (mm) ([6]; Table 8, 1 mg/mL): 24 mm
% T/C [7, 14]: 100%
Mean Survival Time, Days Treated [7, 14]: 9.4 days
% T/C [7, 15]: 125%
Mean Survival Time, Days Treated [7, 15]: 10.0 days
% T/C [7, 13]: 113%
Mean Survival Time, Days Treated [7, 13]: 10.6 days
% T/C [7, 16]: 130%
Mean Survival Time, Days Treated [7, 16]: 12.2 days
% T/C [7, 17]: 136%
Mean Survival Time, Days Treated [7, 17]: 11.4 days
% T/C [7, 18]: 128%
Mean Survival Time, Days Treated [7, 18]: 12.0 days
activity against intraperitoneally implanted tumor [7]: moderate activity
% T/C [8, 19]: 102%
Mean Survival Time, Days Treated [8, 19]: 19.4 days
% T/C [8, 20]: 104%
Mean Survival Time, Days Treated [8, 20]: 19.8 days
% T/C [8, 21]: 63%
Mean Survival Time, Days Treated [8, 21]: 12.0 days
toxicity remark in % T/C column [8, 21]: toxic
activity against intraperitoneally implanted tumor [8]: did not exhibit activity
% T/C ([9]; 0.5 µg/Mouse): 106%
Mean Survival Time, Days Treated ([9]; 0.5 µg/Mouse): 10.4 days
% T/C ([9]; 1 µg/Mouse): 114%
Mean Survival Time, Days Treated ([9]; 1 µg/Mouse): 11.2 days
% T/C ([9]; 2 µg/Mouse): 124%
Mean Survival Time, Days Treated ([9]; 2 µg/Mouse): 12.2 days
% T/C ([9]; 4 µg/Mouse): 129%
Mean Survival Time, Days Treated ([9]; 4 µg/Mouse): 12.6 days
activity against intraperitoneally implanted tumor [9]: moderate activity
Size of Zone of Inhibition (mm) ([10]; Table 7, 0.01 mg/mL): 30 mm
Size of Zone of Inhibition (mm) ([10]; Table 7, 0.1 mg/mL): 27 mm
Size of Zone of Inhibition (mm) ([10]; Table 7, 1 mg/mL): 32 mm
Size of Zone of Inhibition (mm) ([10]; Table 8, 0.33 mg/mL): 36 mm
Size of Zone of Inhibition (mm) ([10]; Table 8, 1 mg/mL): 36 mm
inhibition of fungal pathogen [11]: inhibit
Size of Zone of Inhibition (mm) ([11]; Table 7, 0.01 mg/mL): 21 mm
Size of Zone of Inhibition (mm) ([11]; Table 7, 0.1 mg/mL): 22 mm
Size of Zone of Inhibition (mm) ([11]; Table 7, 1 mg/mL): 26 mm
Size of Zone of Inhibition (mm) ([11]; Table 8, 0.33 mg/mL): 25 mm
Size of Zone of Inhibition (mm) ([11]; Table 8, 1 mg/mL): 31 mm
Zone of Inhibition Size [1]: 37 mm
Size of Zone of Inhibition (mm) ([1]; Table 10, 0.01 mg/mL): 30 mm
Size of Zone of Inhibition (mm) ([1]; Table 10, 0.1 mg/mL): 30^a mm
Size of Zone of Inhibition (mm) ([1]; Table 10, 1.0 mg/mL): 30^a mm
Size of Zone of Inhibition (mm) ([1]; Table 11, 0.33 mg/mL): 30 mm
Size of Zone of Inhibition (mm) ([1]; Table 11, 1.0 mg/mL): 30 mm
Size of Zone of Inhibition (mm) ([2]; Table 10, 0.01 mg/mL): >30 mm
Size of Zone of Inhibition (mm) ([2]; Table 10, 0.1 mg/mL): >30 mm
Size of Zone of Inhibition (mm) ([2]; Table 10, 1.0 mg/mL): >30 mm
Size of Zone of Inhibition (mm) ([2]; Table 11, 0.33 mg/mL): 40 mm
Size of Zone of Inhibition (mm) ([2]; Table 11, 1.0 mg/mL): 44 mm
Size of Zone of Inhibition (mm) ([3]; Table 10, 0.01 mg/mL): 30 mm
Size of Zone of Inhibition (mm) ([3]; Table 10, 0.1 mg/mL): >30 mm
Size of Zone of Inhibition (mm) ([3]; Table 10, 1.0 mg/mL): >30 mm
Size of Zone of Inhibition (mm) ([3]; Table 11, 0.33 mg/mL): 40 mm
Size of Zone of Inhibition (mm) ([3]; Table 11, 1.0 mg/mL): 46^a mm
